Data published in patent US7045495B2 (Sloan-Kettering Institute for Cancer Research, priority 1996, dated 2006).
Several values for one entry are separate records, joined by “and”; a condition that tells them apart may be missing. Equal values may be shown once.

Tests used:
MKN-74 = assay: cell viability, trypan blue dye exclusion; type: cell-based, human; details: 24 hours, single drug or concomitant; bryostatin 1 μM, Mitomycin-C 1 μg/ml, Taxol 50 μM, Cisplatin 50 μM
From the text: Recently our laboratory has studied the effects of combining bryostatin with chemotherapy both in vitro and in vivo against solid tumors. For our in vitro studies, we have been using the human gastric cancer cell line MKN-74. Cytotoxicity has been examined both by cell viability assays using trypan blue dye exclusion assays and by the induction of apoptosis using quantitative fluorescent microscopy.

case in kinase = details: read-out: concentration for 50% inhibition of case in kinase; safingol; cited from earlier work
PKC = details: cited from earlier work
[1] = target: cyclic-adenosine monophosphate-dependent protein kinase A; details: read-out: concentration for 50% inhibition of protein kinase A; safingol; cited from earlier work
[2] = parameters: species or system patients; details: in vivo
Experimental: Individual patients could receive up to six cycles of treatment with the same dose of safingol and doxorubicin (DOX) every 21 days, until signs of tumor progression or unacceptable toxicity occurs, or until the patient's cumulative life-time dose of doxorubicin exceeds 400 mg/m^2 with an additional cycle of treatment. Prior DOX therapy was allowed up to a dose of 280 mg/m^2 as long as the left ventricular ejection fraction was>50%. The starting dose of safingol was 15 mg/m^2.
In fact the white blood count nadirs have increased with increasing safingol dose. Dose escalation above 120 mg/m^2 is planned.
This was associated with no changes in reticulocyte count, no evidence of hemolysis on the peripheral smear, no “pink” discoloration to the plasma, and no evidence or urine hemosiderin. This was believed to be related to relatively poor venous access which only became apparent on the first day of therapy. The patient was retreated according to applicants, protocol criteria for grade I hemolysis which included infusion of safingol through a central vein and at one half the concentration (twice the total volume but the same total dose). Under these conditions the patient has experienced no further evidence of hemolysis.

SMILES | % of Cells Alive (MKN-74) | IC50 (case in kinase) | concentration range that inhibits PKC activity (PKC) | IC50 (PKC; safingol, in vitro, read-out: concentration which inhibits PKC enzyme activity by 50%) | IC50 [1] | dose limiting hematologic toxicity [2] | hemolysis [2]
CO[C@@]12[C@H](COC(N)=O)C3=C(C(=O)C(C)=C(N)C3=O)N1C[C@@H]1N[C@@H]12 [MMC, Mitomycin-C] | 76% |  |  |  |  |  | 
CCCCCCCCCCCCCCC[C@H](O)[C@@H](N)CO [safingol, L-threo-dihydrosphingosine] |  | > 218 µM | micromolar ranges | 33 µM and 30 µM | > 218 µM | no-dose limiting hematologic toxicity | only one patient has experienced a grade I hemolysis
